{"source": "patent US20150173364A1", "about": "“HERBICIDAL COMPOSITIONS CONTAINING FLUMIOXAZIN, AMINOPYRALID AND FLUROXYPYR OR 2,4-D” (Dow AgroSciences LLC, priority 2013, published 2015)", "test_system": "BOIVE: whitehead broom (Borerria verticillata)", "test": "Postemergence herbicidal activity of mixtures in the field, visual weed control", "format": "in vivo", "conditions": "postemergence field trial", "procedure": "Field trials were conducted in Brazil in pasture area cultivated with Brachiaria brizantha using standard herbicide small-plot research methodology. The plot size used was 3 meters (m)×8 m (width×length) with 4 replicates per treatment. The pasture was grown using normal cultural practices for fertilization, management, and maintenance to ensure good growth of the crop and the weeds. […] All treatment results, both for the single product and mixtures, are an average of 3 to 4 replicates and the tank-mix interactions are significant at the […] level. Colby's equation was used to determine the herbicidal effects expected from the mixtures (Colby, S. R. Calculation of the synergistic and antagonistic response of herbicide combinations. […] However, the experiments described herein were performed such that active ingredients B and C were combined and only the efficacy of the combination was determined. As such, Colby's equation simplifies to Expected=A+Z−(AZ/100) A=observed efficacy of active ingredient A (flumioxazin) at the same concentration as used in the mixture; […] All comparisons are an average of 3 to 4 replicates and are significant at the […] level."}
{"molecule": "C#CCN1C(=O)COc2cc(F)c(N3C(=O)C4=C(CCCC4)C3=O)cc21", "note": "[Flumioxazin, 2-[7-fluoro-3,4-dihydro-3-oxo-4-(2-propyn-1-yl)-2H-1,4-benzoxazin-6-yl]-4,5,6,7-tetrahydro-1H-isoindole-1,3(2H)-dione]", "values": [{"measurement": "% Visual Control BOIVE (281 DAA) Obs", "setting": "Flumioxazin 25 g ai/ha alone", "value": 0, "unit": "%"}, {"measurement": "% Visual Control BOIVE (281 DAA) Obs", "setting": "Flumioxazin 50 g ai/ha alone", "value": 0, "unit": "%"}, {"measurement": "% Visual Control BOIVE (281 DAA) Obs", "setting": "Flumioxazin 75 g ai/ha alone", "value": 4, "unit": "%"}, {"measurement": "% Visual Control BOIVE (281 DAA) Obs", "setting": "Flumioxazin 100 g ai/ha alone", "value": 13, "unit": "%"}, {"measurement": "% Visual Control BOIVE (281 DAA) Obs", "setting": "Flumioxazin 125 g ai/ha alone", "value": 14, "unit": "%"}]}
